This note sets out measurements from patent publication US6391919B1, “Bis-amino acid sulfonamides containing substituted benzyl amines HIV protease inhibitors” (Bristol-Myers Squibb Pharma Company, priority 2000, dated 2002).

Values after ≈ are worked out from the molar mass of the structure shown.

The subject of the test is HIV-1 (RF). Nature of the test: HIV RNA assay: microplate based compound evaluation in HIV-1 infected MT-2 cells. In kind it is cell-based. The following applies: Human immunodeficiency virus 1, MT2, 72 h; HIV-1 (RF) infected MT-2 cells, 3 days of culture; virus dilutions selected to standardize the inoculum to this value; read-out: IC90 value (concentration of compound required to reduce the HIV RNA level by 90%). How it is done: Plasmid pDAB 72 containing both gag and pol sequences of BH 10 (bp 113-1816) cloned into PTZ 19R was prepared according to Erickson-Viitanen et al. AIDS Research and Human Retroviruses 1989, 5, 577. The plasmid was linearized with Bam HI prior to the generation of in vitro RNA transcripts using the Riboprobe Gemini system 11 kit (Promega) with T7 RNA polymerase. Synthesized RNA was purified by treatment with RNase free DNAse (Promega), phenol-chloroform extraction, and ethanol precipitation. RNA transcripts were dissolved in water, and stored at −70° C. The concentration of RNA was determined from the A260.
Biotinylated capture probes were purified by HPLC after synthesis on an Applied Biosystems (Foster City, Calif.) DNA synthesizer by addition of biotin to the 5′ terminal end of the oligonucleotide, using the biotin-phosphoramidite reagent of Cocuzza, Tet. Lett. 1989, 30, 6287. […]
MT-2 and MTA cells were maintained in RPM 1640 supplemented with 5% fetal calf serum (FCS) for MT-2 cells or 10% FCS for MTA cells, 2 mM L-glutamine and 50 μg/mL gentamycin, all from Gibco. […] Infectious titers of HIV-1 (RF) stocks were 1-3×10^7 PFU (plaque forming units)/mL as measured by plaque assay on MT-2 cells (see below). […]

As to `Nc1ccn([C@H]2CC[C@@H](CO)O2)c(=O)n1` [ddC, dideoxycytidine], the IC90 was 0.2 µg/mL (≈ 0.947 µM).
